Experimental data reported in ChEMBL document CHEMBL5614418, “Discovery of novel dihydropyrrolidone-thiadiazole compound crosstalk between the YycG/F two-component regulatory pathway and cell membrane homeostasis to combat methicillin-resistant Staphylococcus aureus” (Eur J Med Chem, 2024).
Active and inactive are the calls of the source. The calls are words filed in the database; no cut-off is given here.

Key:
Format in all cases: functional
Staphylococcus aureus [1] = experiment: Downregulation of arcC1 gene expression level in methicillin sensitive Staphylococcus aureus SA113 at 1/2 MIC by RT-qPCR analysis
Staphylococcus aureus [2] = experiment: Antibacterial activity against methicillin sensitive Staphylococcus aureus SA113 assessed as fold increase in MIC in presence of cardiolipin by chequerboard microdilution assay
[3] = tested on: Staphylococcus epidermidis; experiment: Synergistic bactericidal activity against Staphylococcus epidermidis SE1457 assessed as planktonic cells killing by measuring log reduction in bacterial count at 8 times MIC measured after 24 hrs in presence of daptomycin
[4] = tested on: Staphylococcus epidermidis; experiment: Antibacterial activity against Staphylococcus epidermidis SE1457 by broth microdilution method
Staphylococcus aureus [5] = experiment: Bactericidal activity against methicillin resistant Staphylococcus aureus USA300 assessed as planktonic cells killing by measuring log reduction in bacterial count at 2 to 8 times MIC measured after 24 hrs

With `O=C(C1=C(O)C(=O)N(c2nnc(SCc3ccccc3Cl)s2)C1c1ccccc1O)c1cc2ccccc2o1` (stereo unspecified) the Activity (Staphylococcus aureus [1]) was “Active”, the “fold change (FC)” value (Staphylococcus aureus [2]) was 16 and the “log(activity)” value [3] was 4.5. The MIC50 [4] was at least 50 µM, the MIC90 [4] was at least 50 µM and the “log(activity)” value (Staphylococcus aureus [5]) was 2.7.
